Experimental data taken from ChEMBL document CHEMBL1201862, “PubChem BioAssay data set” (2004).
“And” between values parts separate entries of the source, which are not always exact repeats. Equal entries are not always repeated.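 In this assay, cells in 96-well plates receive the compound at five concentrations for 48 hours. Endpoints are linearly interpolated between the surrounding concentrations. Abbreviation: GI50, concentration required for 50% inhibition of growth.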 The source made the active and inactive calls. Cut-off read from the data, not from the text of the source: active = GI50 up to about 1.1 µM and inactive = higher.

Key:
Assay in all cases: NCI anticancer screen, dose series, 48 h
SNB-75 = tested on: SNB-75
U-251 = tested on: U-251
SK-MEL-2 = tested on: SK-MEL-2
A498 = tested on: A498
CAKI-1 = tested on: CAKI-1
OVCAR-5 = tested on: OVCAR-5
SF-268 = tested on: SF-268
NCI-H23 = tested on: NCI-H23
M14 = tested on: M14
SK-OV-3 = tested on: SK-OV-3
EKVX = tested on: EKVX
RPMI-8226 = tested on: RPMI-8226
OVCAR-8 = tested on: OVCAR-8
NCI-H522 = tested on: NCI-H522
HOP-62 = tested on: HOP-62
IGROV-1 = tested on: IGROV-1
LOX IMVI = tested on: LOX IMVI

| SMILES | GI50 (SNB-75) | GI50 (U-251) | GI50 (SK-MEL-2) | GI50 (A498) | GI50 (CAKI-1) | GI50 (OVCAR-5) | GI50 (SF-268) | GI50 (NCI-H23) | GI50 (M14) | GI50 (SK-OV-3) | GI50 (EKVX) | GI50 (RPMI-8226) | GI50 (OVCAR-8) | GI50 (NCI-H522) | GI50 (HOP-62) | GI50 (IGROV-1) | GI50 (LOX IMVI) |
| --- | --- | --- | --- | --- | --- | --- | --- | --- | --- | --- | --- | --- | --- | --- | --- | --- | --- |
| OC(c1ccccc1)(c1ccccc1)c1ccccn1 | > 100 µM (inactive) and 63.7 µM (inactive) | > 100 µM (inactive) | > 100 µM (inactive) | > 100 µM (inactive) | > 100 µM (inactive) and 85.7 µM (inactive) | > 100 µM (inactive) | > 100 µM (inactive) | 83 µM (inactive) | > 100 µM (inactive) | > 100 µM (inactive) | > 100 µM (inactive) | 95.5 µM (inactive) | > 100 µM (inactive) | > 100 µM (inactive) | > 100 µM (inactive) | > 100 µM (inactive) | > 100 µM (inactive) |
| C/C=C1\Oc2ccc(OC)cc2S1(=O)=O | > 100 µM (inactive) | > 100 µM (inactive) | > 100 µM (inactive) | > 100 µM (inactive) | > 100 µM (inactive) | > 100 µM (inactive) | > 100 µM (inactive) | > 100 µM (inactive) | > 100 µM (inactive) | > 100 µM (inactive) | > 100 µM (inactive) | > 100 µM (inactive) | > 100 µM (inactive) | > 100 µM (inactive) | > 100 µM (inactive) | > 100 µM (inactive) | > 100 µM (inactive) |
| CC(C)CC1CC2C(=O)N(c3ccccc3)C(=O)C2c2[nH]c3ccccc3c21 (stereo unspecified) | 13.1 µM (inactive) | 25 µM (inactive) | 25.6 µM (inactive) | > 36.3 µM (inactive) | 18.7 µM (inactive) | > 100 µM (inactive) | > 56.2 µM (inactive) | > 45.1 µM (inactive) | 28.2 µM (inactive) | 21.4 µM (inactive) | > 52.2 µM (inactive) | 29.2 µM (inactive) | 14.9 µM (inactive) | 20.9 µM (inactive) | 18.8 µM (inactive) | 17.7 µM (inactive) | 16.8 µM (inactive) |
| CC1(C)C(=O)C(O)=CC2C1=CCC1C2(C)C(=O)CC2(C)C(C(C)(O)C(=O)CC(O)C(C)(C)O)C(O)CC12C (stereo unspecified) | 0.989 µM (active) | 2.65 µM (inactive) | 2.61 µM (inactive) | 2 µM (inactive) | 2.12 µM (inactive) | 25.2 µM (inactive) | 3.11 µM (inactive) | 10.9 µM (inactive) | 3.54 µM (inactive) | 3.72 µM (inactive) | 10 µM (inactive) | 3.4 µM (inactive) | 12.6 µM (inactive) | 2.71 µM (inactive) | 4.63 µM (inactive) | 2.64 µM (inactive) | 2.5 µM (inactive) |
| Cc1c(C(=O)/C=C/C=C/c2ccccc2)[n+]([O-])c2ccccc2[n+]1[O-] | 34.2 µM (inactive) | 33.7 µM (inactive) | 31.7 µM (inactive) | 51.8 µM (inactive) | 51.8 µM (inactive) | 66.1 µM (inactive) | 29.5 µM (inactive) | 17.5 µM (inactive) | 19.8 µM (inactive) | 40.5 µM (inactive) | 51.2 µM (inactive) | > 10 µM (inactive) | 42.8 µM (inactive) | 15 µM (inactive) | 25.3 µM (inactive) | 26.3 µM (inactive) | 31.1 µM (inactive) |
| CC(C)(C)C1=CC(=C(P(=O)(O)O)P(=O)(O)O)C=C(C(C)(C)C)C1=O | > 50 µM (inactive) |  | > 50 µM (inactive) | > 50 µM (inactive) | > 50 µM (inactive) | > 50 µM (inactive) | > 50 µM (inactive) | > 50 µM (inactive) | > 50 µM (inactive) | > 50 µM (inactive) | > 50 µM (inactive) | > 50 µM (inactive) | > 50 µM (inactive) | > 50 µM (inactive) | > 50 µM (inactive) | > 50 µM (inactive) | > 50 µM (inactive) |
